# According to patent publication US4439460A, “Dipeptide sweetener sulfate and sulfonate salts” (G. D. Searle & Co., priority 1982, dated 1984):
# Where a SMILES comes first, the peptide text is derived from it.
# Key:
# [1] = Thermal stability examination: oven at 170° C., HPLC analysis; type: physicochemical; settings: for degradation: after seven, fifteen or twenty-five minutes heating at about 170° C.; for % Degradation, 7 Minutes (170° C.) / % Degradation, 15 Minutes (170° C.) / Physical Appearance after 25 Minutes at 170° C. / % Degradation, 25 Minutes (170° C.): oven 170° C.; for % Degradation, 7 Minutes (170° C.) / % Degradation, 15 Minutes (170° C.) / % Degradation, 25 Minutes (170° C.): HPLC
# Method: Samples of the salts of Examples 1 and 2 having weights equivalent to about 40 mg of APM and reference samples (40 mg) of free base aspartylphenylalanine methyl ester (APM) and the corresponding hydrochloride dihydrogen phosphate (H2 PO4) and bisulfate (HSO4) salts having weights equivalent to about 40 mg APM were placed in individual 10 ml beakers and put in an oven pre-heated to 170° C. The samples were allowed to bake for predetermined times (7, 15 and 25 minutes) after which they were removed from the oven and analyzed by HPLC using the foregoing HPLC methods.
# [2] = Shelf life determination: accelerated storage, HPLC assay; type: physicochemical
# Method: Two sets of samples of the APM sulfate salt of Example 1, APM hydrochloride and APM each having a weight equivalent to […] APM were placed in ovens which contained an open beaker of water. The first set of samples was heated at 70° and 100 percent humidity for 14.7 days. The second set of samples was heated at 85° and atmospheric humidity for 14.7 days. The samples were periodically analyzed by the HPLC method as described above in order to determine percent decomposition.
# [3] = Taste of baked dipeptide sweetened yellow cakes; settings: single blind conditions
# Method: A taste test of the baked dipeptide sweetened yellow cakes can also be conducted under standard single blind conditions.
# (§1) Yellow cakes were baked following a standard recipe, but substituting a dipeptide sweetener or its salt and Maltrin M-100 (a modified maltodextrin starch bulking agent) for sugar. The liquid ingredients were creamed together then folded into a sifted mixture of the dry ingredients. The resulting dough was placed in a greased 8-inch cake pan and baked at 350° for 40 minutes. Three cakes were baked in this manner; cake 1 contained (APM-H)2 SO4, cake 2 contained APM-HCl, cake 3 contained APM.
# [4] = Thermal stability studies in baked cake: HPLC of core samples; type: physicochemical; settings: for sweetener recovery: typical cake test, baked at 350° Fahrenheit for about thirty to forty-five minutes
# Method: In this test sweetened yellow cakes are prepared following well-known procedures and using the appropriate ingredients but substituting dipeptide sweetener for sugar. Use of examples of salts of the invention and reference dipeptides and salts such as the hydrochloride will produce eight-inch yellow cakes which are ready for sweetener content comparison. The cakes are typically baked at 350° Fahrenheit (about 175° C.) for about thirty to forty-five minutes. Taking core sections of the sample cakes and analyzing for dipeptide sweetener content allows determination of the percent degradation of the form of the dipeptide sweetener used. In a typical thermal stability cake test, a cake baked with the sulfate salt of the invention will have about […] more dipeptide sweetener in it than a cake baked with the hydrochloride salt; compare, for example, about 34 percent sweetener recovery for the sulfate with about 25 percent for the hydrochloride.
# as §1
# The liquid ingredients included milk (193 g), shortening (54 g), egg (53 g, 1 egg), vanilla (3.6 g); the dry ingredients included flour (167 g), baking powder (6.9 g), salt (3.4 g), maltrin M-100 (126.5 g) dipeptide sweetener salt: (APM-H)2 SO4 (cake 1) (1.2 g), APM-HCl (cake 2) (1.2 g), APM (cake 3) (1.0 g).
# Core samples were taken from each of the three cakes and the samples were analyzed by HPLC methods as described in Example 1.
# [5] = Rate of dissolution studies in beverage media; type: physicochemical; settings: for Media Dissolution Times, medium 4: ambient temperature coffee (80 ml); for Media Dissolution Times, medium 4 / Media Dissolution Times, medium 3 / Media Dissolution Times, medium 2: with stirring; for Media Dissolution Times, medium 4 / Media Dissolution Times, medium 1 / Media Dissolution Times, medium 3 / Media Dissolution Times, medium 2: salt equimolar with 57 mg APM; for Media Dissolution Times, medium 1: refrigerated carbonated water (240 ml), without stirring; for Media Dissolution Times, medium 3: refrigerated coffee (80 ml); for Media Dissolution Times, medium 2: refrigerated lemonade with no sugar (240 ml)
# Method: Samples of the salts of Examples 1, 2 and the APM hydrochloride and corresponding bisulfate and dihydrogen phosphate salts were employed to determine relative dissolution rates in beverage media. The amount of salt used in each instance was calculated to be equimolar with 57 mg of APM. The tests were conducted in four types of liquid beverage media; (1) refrigerated carbonated water (240 ml), (2) refrigerated lemonade without sugar (240 ml), (3) refrigerated coffee (80 ml), (4) coffee at ambient temperature (80 ml). The dissolution rates in medium 1 were measured without stirring and the rates in 2, 3 and 4 were measured with stirring. Dissolution was deemed complete when solid particles or a cloudy appearing medium were no longer present.
Structure (SMILES),degradation [1],"% Degradation, 7 Minutes (170° C.) [1] [%]","% Degradation, 15 Minutes (170° C.) [1] [%]",Physical Appearance after 25 Minutes at 170° C. [1],"% Degradation, 25 Minutes (170° C.) [1] [%]","HPLC Assay (% composition) APM, 6.8 days ([2]; 70°, 100 percent humidity) [%]","HPLC Assay (% composition) DKP, 6.8 days ([2]; 70°, 100 percent humidity)","APM % Initial (APM remaining after 14.7 days relative to the initial APM) ([2]; 70°, 100 percent humidity) [%]","HPLC Assay (% composition) AP, 14.7 days ([2]; 70°, 100 percent humidity)","HPLC Assay (% composition) APM, 14.7 days ([2]; 70°, 100 percent humidity) [%]","HPLC Assay (% composition) APM, 6.8 days ([2]; 85° C., atmospheric humidity) [%]","HPLC Assay (% composition) DKP, 6.8 days ([2]; 85° C., atmospheric humidity) [%]","APM % Initial (APM remaining after 14.7 days relative to the initial APM) ([2]; 85° C., atmospheric humidity) [%]","HPLC Assay (% composition) AP, 14.7 days ([2]; 85° C., atmospheric humidity)","HPLC Assay (% composition) APM, 14.7 days ([2]; 85° C., atmospheric humidity) [%]","HPLC Assay (% composition) DKP, 14.7 days ([2]; 85° C., atmospheric humidity)","HPLC Assay (% composition) APM, Initial ([2]; initial, before storage) [%]","Media Dissolution Times, medium 4 [5] [s]","Media Dissolution Times, medium 1 [5] [s]","Media Dissolution Times, medium 2 [5]",further results
"COC(=O)[C@H](Cc1ccccc1)NC(=O)[C@@H](N)CC(=O)O [A, aspartylphenylalanine methyl ester] (H-Asp-Phe-OMe)",≤ 85%,0,22.2,light-gray material,87.6,95.3,1.1%,95.9,0.21%,92.6,95.2,1.6,94.9,.20%,91.7,2.0%,96.6,–,–,–,"HPLC Assay (% composition) DKP, 14.7 days ([2]; 70°, 100 percent humidity): 1.2%; HPLC Assay (% composition) DKP, Initial ([2]; initial, before storage): 1.0%; cake sweetness, panel taste testing [3]: little sweetness and a flat taste"
"COC(=O)[C@H](Cc1ccccc1)NC(=O)[C@@H](N)CC(=O)O.Cl [B, aspartylphenylalanine methyl ester hydrochloride] (H-Asp-Phe-OMe)",at least 45%,2,8.5,"melted, light-brown",44.7,77.7,.25%,93.6,.36%,75.1,62.1,4.0,57.3,1.6%,46.0,3.2%,80.2,90,120,52 s,"sweetener recovery [4]: about 25%; Media Dissolution Times, medium 3 [5]: 94 s; dissolution of a sweetening amount in refrigerated lemonade [5]: require significant time and stirring to dissolve; HPLC Assay (% composition) AP, 6.8 days ([2]; 70°, 100 percent humidity): .33%; HPLC Assay (% composition) DKP, 14.7 days ([2]; 70°, 100 percent humidity): .60%; HPLC Assay (% composition) AP, 6.8 days ([2]; 85° C., atmospheric humidity): 1.1%"
"COC(=O)[C@H](Cc1ccccc1)NC(=O)[C@@H](N)CC(=O)O.O=S(=O)(O)O [C, aspartylphenylalanine methyl ester bisulfate] (H-Asp-Phe-OMe)",≤ 85%,62.8,78.2,melted colorless,89.2,–,–,–,–,–,–,–,–,–,–,–,–,330,–,–,–
COC(=O)[C@H](Cc1ccccc1)NC(=O)[C@@H](N)CC(=O)O.O=P(O)(O)O [D] (H-Asp-Phe-OMe),–,0.1,60.6,yellow powder,86.6,–,–,–,–,–,–,–,–,–,–,–,–,600,–,–,–
"COC(=O)[C@H](Cc1ccccc1)NC(=O)[C@@H](N)CC(=O)O.COC(=O)[C@H](Cc1ccccc1)NC(=O)[C@@H](N)CC(=O)O.O=S(=O)(O)O [Ex. 1, Bis(hydrogen aspartylphenylalanine methyl ester) sulfate] (H-Asp-Phe-OMe)",less than 10%,1.3,0,white cryst. powder,5.5,83.9,–,96.7,.20%,82.1,83.0,0.15,95.4,.20%,80.9,.08%,84.8,22,22,About 0 seconds,"sweetener recovery [4]: about 34%; more dipeptide sweetener in cake than a cake baked with the hydrochloride salt ([4]; typical thermal stability cake test): about 50%; dissolution rate relative to the corresponding hydrochloride salt [5]: at least approximately five to six times faster; Media Dissolution Times, medium 3 [5]: 24 s; dissolution of a sweetening amount in refrigerated lemonade [5]: completely dissolve in refrigerated lemonade without stirring; degradation in shelf life stability tests ([2]; about 85° for about 15 days or 70° for about 15 days at 100 percent humidity): less degradation than the hydrochloride salt; cake sweetness, panel taste testing [3]: approximately equal to that of sugar"
COC(=O)[C@H](Cc1ccccc1)NC(=O)[C@@H](N)CC(=O)O.CS(=O)(=O)O [Ex. 2] (H-Asp-Phe-OMe),about 30%,0.0,0.5,off white powder,28.0,–,–,–,–,–,–,–,–,–,–,–,–,167,168,250 s,–
